The values below come from patent US11365185B2, “Lysophosphatidic acid receptor 1 (LPAR1) inhibitor compounds” (Eli Lilly and Company, priority 2017, dated 2022).

Data set [1] is described as follows: Rodent Pharmacokinetics - Rat PK. The note with it: male, Sprague-Dawley, plasma; for AUC / bioavailability: 10 mg/kg; for AUC: PO; for clearance / Vd: intravenous, 1 mg/kg; for Vd: read-out: Vdss; for bioavailability: oral. In kind it is in vivo, male Sprague-Dawley rats. Here is the method: (§1) The pharmacokinetics of compounds are determined in male Sprague-Dawley rats or C57 mice. The rats are administered a single 1 mg/kg intravenous (IV) and 10 mg/kg oral gavage (PO) dose. The vehicles are 20% Captisol w/v in 25 mM NaPO4 buffer, pH8 and 1% hydroxyethylcellulose/0.25% polysorbate 80 and 0.05% antifoam 1510-US in distilled water for the intravenous and oral dose, respectively. Blood samples are collected at predose (PO only), 0.08 (IV only), 0.25, 0.5, 1, 2, 4, 8, 12 and 24 h after initiation of compound administration. Blood samples are centrifuged to obtain plasma. The plasma samples are analyzed by LC-MS/MS to determine compound concentrations.

For data set [2], the system named is Male C57BL/6J mice. In words: Mouse Intravenous LPA-Induced Histamine and Eicosanoids Release. It is filed as in vivo. As to conditions: 10 mg/kg orally 2 hours before intravenous LPA; plasma. Here is the method:
Mouse Intravenous LPA-Induced Histamine and Eicosanoids Release
A mouse intravenous LPA-induced histamine and eicosanoids release model is utilized to determine the in vivo potency of the compounds of the present invention. Male C57BL/6J mice weighing 20-25 grams are given free access to standard mouse chow and water. LPA is dissolved in 0.1% fatty acid-free bovine serum albumin to generate solution at 2 mg/mL. Test compounds are formulated in 0.5% methyl cellulose plus 0.25% Tween 80 to generate required concentrations one day before the experiment and stored in a refrigerator until use. Animals are dosed orally with test compounds at 10 ml/kg 2 hours before the intravenous LPA dosing (300 ug per mouse) with 30 gauge needles through tail vain. Two hours after LPA dosing the animals are euthanized by CO2 suffocate. Blood will be collected by cardiac puncture. Blood samples are kept on ice for more than 5 minutes and centrifuged at 4000 rpm for 10 minutes at 4° C. to generate supernatant plasma. The plasma histamine, methylimidazol acetic acid and eicosanoids levels are measured by LC/MS.

The target of data set [3] is T1, LPAR1 (Homo sapiens (Human), UniProt Q92633). In words: LPAR1 Cytokine Release Assay (IL-6, MG63 cells). It is filed as cell-based. As to conditions: LPA-stimulated IL-6 levels, 24 hours, ELISA. The method, then: LPAR1 Cytokine Release Assay
Human MG63 cells are seeded at 20,000 per well in 96-well plates and incubated in MEM medium. One day later, the cell culture medium is removed and 60 μl of test compounds are added to each well. 30 minutes later, 60 μl of LPA (10 μM) are added to each well. 24 hours later, 50 μl of supernatant from each well are taken and IL-6 levels are measure by using ELISA kit (R&D Systems, Cat. No. D6050). IC50 values are determined using “Genedata Screener” analysis tool.
Target sequence in this assay (Q92633 whole entry): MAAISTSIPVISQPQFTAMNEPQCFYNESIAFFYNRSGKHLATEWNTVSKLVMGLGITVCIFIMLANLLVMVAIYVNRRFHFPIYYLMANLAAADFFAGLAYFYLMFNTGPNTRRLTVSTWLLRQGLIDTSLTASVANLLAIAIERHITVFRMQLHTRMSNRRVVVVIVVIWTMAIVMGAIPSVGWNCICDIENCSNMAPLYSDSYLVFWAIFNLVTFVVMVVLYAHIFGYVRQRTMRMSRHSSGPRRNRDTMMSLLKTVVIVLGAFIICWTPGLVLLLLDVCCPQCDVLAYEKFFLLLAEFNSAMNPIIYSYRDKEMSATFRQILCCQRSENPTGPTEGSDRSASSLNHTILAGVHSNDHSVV

In data set [4] the target is T1, LPAR1. Nature of the data set: LPAR1 Membrane Binding Assay. The note with it: membrane containing LPAR1, radio labeled ligand, SPA. The method, then:
LPAR1 Membrane Binding Assay
The ability of a compound to inhibit binding of a ligand (1-(4′-(4-(((benzyloxy)carbonyl)amino)-3-methylisoxazol-5-yl)-[1,1′-biphenyl]-4-yl)cyclopropane-1-carboxylic acid) to LPAR1 is assessed via a membrane binding assay. Membrane containing LPAR1 was purchased from Cerep (Cat. No. 290312RB). Prior to the assay, membrane is thawed and homogenized for 15 seconds. 50 μl of test compounds and 50 μl of radio labeled ligand are added to the 96-well plates and then 50 of μl membrane (50-400 ug/ml) are added. Next, 50 μl of SPA PVT WGA beads are added (1-5 mg/ml) and the plates are sealed and incubated at room temperate for 5 minutes. Radio activity is measured by Beta Counter and IC50 values are determined using “Genedata Screener” analysis tool.
Target sequence in this assay (Q92633 whole entry, species assumed): as the sequence (Q92633 whole entry) above

Data set [5] concerns the target human LPAR3 (Homo sapiens (Human), UniProt Q9UBY5). In words: LPAR3 Calcium Flux Assay. As to conditions: U2OS cells overexpressing human LPAR3, LPA-stimulated calcium, FLIPR. It is filed as cell-based. Here is the method: LPAR3 Calcium Flux Assays
A cDNA encoding the human LPAR3 receptor is synthesized and cloned into pDNA3 expression plasmid. The plasmid is transfected in U2OS cells using Lipofectamine 2000 (Invitrogen Corp., USA). Clones stably expressing human LPAR3 are selected using neomycin and identified as cells that show Ca-influx in response to LPA.
U2OS cells overexpressing human LPAR3 are seeded at 20,000-40,000 cells per well in a 96-well poly-D-lysine coated plate one day before the assay. Prior to the assay, the cells are washed once with assay buffer (HBSS containing 20 mM HEPES and 0.2% BSA) and then incubated in 50 μl of assay buffer for 60 minutes. Then 50 μl of a calcium indicator dye (Fluo-4 NW, Molecular Probes) are added to each well and incubation is continued for 30 minutes at 37° C. and then 30 minutes at room temperature. 50 μl of test compounds in 4% DMSO are added to the cells and incubation continued at room temperature for 40 minutes. Cells are stimulated by the addition of 50 μl of 128 nM LPA and intracellular calcium is measured using the FLIPR TETRA (Molecular Devices). IC50 values are determined using “Genedata Screener” analysis tool.
A general note: A change in cytosolic calcium serves as a functional read-out for many receptors and channels.

In data set [6] the target is T1, LPAR1. Nature of the data set: LPAR1 Calcium Flux Assay. It is filed as cell-based. As to conditions: U937 cells overexpressing human LPAR1, LPA-stimulated calcium, FLIPR. Here is the method:
LPAR1 Calcium Flux Assays
A cDNA encoding the human LPAR1 receptor is synthesized and cloned into pDNA3 expression plasmid. The plasmid is transfected in U937 cells using Lipofectamine 2000 (Invitrogen Corp., USA). Clones stably expressing human LPAR1 are selected using puromycin and identified as cells that show Ca-influx in response to LPA.
U937 cells overexpressing human LPAR1 are seeded at 100,000 cells per well in a 96-well fibronectin (10 ug/ml) coated plate in 60 μl of assay buffer (HBSS containing 20 mM HEPES and 0.2% BSA) and then incubated for 60 minutes. Then 50 μl of a calcium indicator dye (Fluo-4 NW, Molecular Probes) are added to each well and incubation continued for 30 minutes at 37° C. and then 30 minutes at room temperature. 50 μl of test compounds in 4% DMSO are added to the cells and incubation continued at room temperature for 40 minutes. Cells are the stimulated by the addition of 50 μl of 128 nM LPA and intracellular calcium is measured using the FLIPR TETRA (Molecular Devices). IC50 values are determined using “Genedata Screener” analysis tool.
Target sequence in this assay (Q92633 whole entry): as above

In data set [7] the test system is Human hepatic stellate cell line LX-2. Nature of the data set: Calcium Influx of Human Hepatic Stellate Cells (LX-2). In kind it is cell-based. The note with it: LX-2 cells, LPA-stimulated calcium influx. Here is the method: Calcium Influx of Human Hepatic Stellate Cells (LX-2)
Human hepatic stellate cell line LX-2 is purchased from EMD Millpore. LX-2 cells are seeded at 20,000-40,000 cells per well in a 96-well poly-D-lysine coated plate one day before the assay. Prior to the assay, the cells are washed once with assay buffer (HBSS containing 20 mM HEPES and 0.2% BSA) and then incubated in 50 μl of assay buffer for 60 minutes. Then 50 μl of a calcium indicator dye (Fluo-4 NW, Molecular Probes) are added to each well and incubation is continued for 30 minutes at 37° C. and then 30 minutes at room temperature. 50 μl of test compounds in 4% DMSO are added to the cells and incubation is continued at room temperature for 40 minutes. Cells are stimulated by the addition of 50 μl of 128 nM LPA and intracellular calcium is measured using the FLIPR TETRA (Molecular Devices). IC50 values are determined using “Genedata Screener” analysis tool.

Data set [8] in a line: Rodent Pharmacokinetics - Mouse PK. As to conditions: C57, plasma; for AUC / bioavailability: 10 mg/kg; for AUC: PO; for clearance / Vd: intravenous; for Vd: read-out: Vdss; for bioavailability: oral. It is filed as in vivo, C57 mice. Here is the method: as §1
The subject of data set [9] is Male C57B1/6 mice. Nature of the data set: Diet-Induced Liver Inflammation and Fibrosis. As to conditions: for Peri-sinusoidal Fibrosis Score: vehicle 1.37; for Inflammation Score: vehicle 2.7. In kind it is in vivo. Here is the method: Diet-Induced Liver Inflammation and Fibrosis
Male C57B1/6 mice (7-8 weeks old) are given free access to food and water. Mice are fed with high fat, high sucrose and high cholesterol food for 196 days. Then animals will be administrated orally with vehicle or test compounds once daily for 77 days at a volume of 5 ml/kg. Body weight and food intake will be measured twice a week, after two weeks, BW and FI will be measured once a week. At the end of study, animals will be euthanized by CO2 suffocation. Liver samples of the animals are collected and fixed in 10% NBF. Liver samples are prepared after 20 to 24 hours of fixation in 10% NBF and prepared into FFPE blocks. Slide sections of FFPE blocks are processed with H&E and Masson's Trichrome staining. Histopathology interpretation and results will be provided by qualified pathologists. The data are plotted using Graphpad prism and statistical differences between groups determined.

Setting [10] is: 10 mg/kg orally once daily for 77 days.
Setting [11] is: 30 mg/kg orally once daily for 77 days.

For orientation: AUC means concentration integrated over time. Read a high AUC as more exposure. One may read the clearance as a measure of how efficiently the substance is removed, as volume per time. Read a low clearance as inefficient removal. Broadly, the bioavailability is the share of a dose that reaches the circulation, judged against a reference dose that is usually intravenous. Low readings indicate little systemic uptake, high ones much systemic uptake. The term pIC50 denotes the IC50 on a negative log10 scale, so that one unit is a factor of ten. Broadly, the pKi is −log10 of the Ki, conventionally taken in molar units.

pIC50, pKi: −log10 of the molar value. Marks after values point to notes of the source that are not given here.

Chain of human LPAR3 (Q9UBY5 whole entry): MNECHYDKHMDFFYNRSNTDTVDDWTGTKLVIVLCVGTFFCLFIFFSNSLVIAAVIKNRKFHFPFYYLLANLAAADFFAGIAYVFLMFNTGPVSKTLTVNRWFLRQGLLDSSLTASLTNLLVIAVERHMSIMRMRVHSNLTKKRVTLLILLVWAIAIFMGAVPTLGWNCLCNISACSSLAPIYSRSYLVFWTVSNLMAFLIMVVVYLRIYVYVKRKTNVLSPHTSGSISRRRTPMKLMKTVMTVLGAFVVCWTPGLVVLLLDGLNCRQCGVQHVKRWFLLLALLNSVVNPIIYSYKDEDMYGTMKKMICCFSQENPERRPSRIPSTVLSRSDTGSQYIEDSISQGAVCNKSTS

As for `CC(C)Oc1cncc(Nc2c(-c3ccc(-c4ccc(C5(C(=O)O)CC5)cc4)cn3)cnn2C)n1.Cl` [Example 20, 1-[4-[6-[5-[(6-isopropoxypyrazin-2-yl)amino]-1-methyl-pyrazol-4-yl]-3-pyridyl]phenyl]cyclopropanecarboxylic Acid; Hydrochloride], in data set [1], the AUC stood at 70.9 µM·h, the clearance stood at 2.94 mL/min/kg, the Vd came to 0.721 L/kg and the bioavailability is 57.5%. Further, in data set [2], the “% of inhibition, 9,10-cis epoxide of linoleic acid” value was determined as 83.4 ± 6.4%; the “% of inhibition, 12-hydroxyeicosatetraenoic acid” value is recorded as 68.8 ± 6.0%; the “% of inhibition, methylimidazoleacetic acid” value came to 103.5 ± 0.6%. This compound also had a pIC50 in data set [3] of 8.40. The compound also had a negative-log Ki (pKi) in [4] of 7.90. Further, the pIC50 in data set [5] was 6.47. Besides, the pIC50 in data set [6] is 7.53. In addition, in data set [7], the pIC50 is 7.92.

Turning to `Cn1ncc(-c2ccc(-c3ccc(C4(C(=O)O)CC4)cc3)cn2)c1Nc1cncc(C(F)(F)F)n1` [Example 21, 1-[4-[6-[1-methyl-5-[[6-(trifluoromethyl)pyrazin-2-yl]amino]pyrazol-4-yl]-3-pyridyl]phenyl]cyclopropanecarboxylic Acid], in data set [3], the negative logarithm of the IC50 (pIC50) is 8.06. The compound also had a pKi in [4] of 7.56. Besides, in data set [5], the pIC50 was 5.79. The negative-log IC50 (pIC50) in data set [6] was 7.44. For the same compound, in data set [8], the AUC was 16.3 µM·h, the clearance is 4.99 mL/min/kg, the Vd is 1.46 L/kg and the bioavailability is 24.8%. Further, the pIC50 in data set [7] was 7.85.

As for `CC(C)c1cncc(Nc2c(-c3ccc(-c4ccc(C5(C(=O)O)CC5)cc4)cc3)cnn2C)n1` [Example 26, 1-[4-[4-[5-[(6-isopropylpyrazin-2-yl)amino]-1-methyl-pyrazol-4-yl]phenyl]phenyl]cyclopropanecarboxylic Acid], the pIC50 in data set [3] is 8.32. Moreover, the pKi in data set [4] was 7.73. The pIC50 in [5] was less than 5.00. The pIC50 in data set [6] is 7.63. Also, in data set [8], the AUC is 9.06 µM·h, the clearance was found to be 2 mL/min/kg, the Vd worked out at 2 L/kg and the bioavailability was found to be 30%. Further, the pIC50 in data set [7] is 7.88.

For `CC(C)c1cncc(Nc2c(-c3ccc(-c4ccc(C5(C(=O)O)CC5)cc4)cn3)cnn2C)n1` [Example 27, 1-[4-[6-[5-[(6-isopropylpyrazin-2-yl)amino]-1-methyl-pyrazol-4-yl]-3-pyridyl]phenyl]cyclopropanecarboxylic Acid], in [1], the AUC worked out at 80.1 µM·h, the clearance is 4.23 mL/min/kg, the Vd came out at 0.799 L/kg and the bioavailability amounted to 93.6%. Further, in [2], the “% of inhibition, histamine” value was 89.5 ± 1.6% and the “% of inhibition, methylimidazoleacetic acid” value is 100.8 ± 3.4%. This compound also showed a pKi in data set [4] of 7.82. Moreover, in [9] (setting [10]), the “Peri-sinusoidal Fibrosis Score” value came out at 1.30 and the “Inflammation Score” value is recorded as 2.1*. Also, in data set [9] (setting [11]), the “Peri-sinusoidal Fibrosis Score” value is given as 1.07^$ and the “Inflammation Score” value is recorded as 2.3^#. Besides, the pIC50 in data set [5] was 5.70. Further, the pIC50 in data set [6] is 7.69. Moreover, in data set [8], the AUC is 38.4 µM·h, the clearance was 3.5 mL/min/kg, the Vd turned out to be 0.953 L/kg and the bioavailability was found to be 40.8%. Besides, the pIC50 in [7] was 8.05.
